# How the values were obtained:
# [1] = system: lipoxygenase / cyclooxygenase; conditions: prior art; cited from earlier work
# leucocytes (migration) = test: Inhibition of the migration of leucocytes, sponge soaked in active compound introduced under the dorsal skin of rats; assay type: in vivo; conditions: rat, local dose 10 mg/rat; for inhibition in vivo at 10 mg: Leucocyte, read-out: Inhibition of the migration of leucocytes (control = 0%)
# Excerpt: The sulphenamides used according to the present invention are also active in vivo. […] Table 2 which follows summarises the activities of some illustrative sulphenamides after local administration, by introduction of a piece of sponge soaked in the active compound under the dorsal skin of rats.
# platelet lipoxygenase = target: T1, platelet lipoxygenase (Homo sapiens, UniProt P18054); test: Inhibition of the platelet lipoxygenase (synthesis of HETE), metabolism of radioactively labelled arachidonic acid by washed human platelets; assay type: cell-based; conditions: in vitro
# T1 construct: metabolism of radioactively labelled arachidonic acid by washed human platelets; endogenous in cells; host or cells: washed human platelets
# T1 sequence (P18054 1-663): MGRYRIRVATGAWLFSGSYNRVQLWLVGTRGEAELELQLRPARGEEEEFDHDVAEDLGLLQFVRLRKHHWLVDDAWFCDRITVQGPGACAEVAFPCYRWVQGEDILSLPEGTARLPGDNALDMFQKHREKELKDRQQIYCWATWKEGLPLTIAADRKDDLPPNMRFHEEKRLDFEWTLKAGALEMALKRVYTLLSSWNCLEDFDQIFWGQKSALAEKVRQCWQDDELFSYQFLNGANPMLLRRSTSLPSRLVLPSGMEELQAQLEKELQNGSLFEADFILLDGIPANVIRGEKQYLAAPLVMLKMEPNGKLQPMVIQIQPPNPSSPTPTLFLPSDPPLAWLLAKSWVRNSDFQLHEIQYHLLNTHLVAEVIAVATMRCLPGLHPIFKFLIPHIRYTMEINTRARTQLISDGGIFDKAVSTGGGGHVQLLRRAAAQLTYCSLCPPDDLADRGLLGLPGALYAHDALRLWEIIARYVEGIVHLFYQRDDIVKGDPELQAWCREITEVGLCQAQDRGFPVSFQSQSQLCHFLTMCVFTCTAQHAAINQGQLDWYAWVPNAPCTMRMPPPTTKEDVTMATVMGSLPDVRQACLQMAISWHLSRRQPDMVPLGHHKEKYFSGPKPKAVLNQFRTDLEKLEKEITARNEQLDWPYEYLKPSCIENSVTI
# Description: In this test method, the metabolism of radioactively labelled arachidonic acid by washed human platelets is investigated. In this in vitro test, the radioactively labelled metabolites are extracted from the reaction mixture and separated by thin layer chromatography. The autoradiogram is evaluated on the thin layer scanner. Under these test conditions, the labelled metabolites are separated from the unreacted arachidonic acid and can subsequently be quantitatively evaluated. The distribution of the radioactivity in the cyclooxygenase products, formed during metabolism, thomboxane B2 (TXB2) and 12-hydroxy-5,8,10-heptadecatrienic acid (HHT) and the lipoxygenase product 12-hydroxy-5,8,11,14-eicosatetraenoic acid (HETE) as influenced by the inhibitors, gives a measure of the inhibition of the enzymes.
# The inhibition of lipoxygenase by the sulphenamides which can be used according to the invention can be measured by the inhibition of the synthesis of HETE. […] Inhibition of the platelet lipoxygenase (synthesis of HETE)
Minimum effective inhibitory concentration (at least 50% inhibition) (platelet lipoxygenase),SMILES,inhibition in vivo at 10 mg (leucocytes (migration)) [%],also measured
,"CCCCCC#CCC#CCC#CCC#CCCCC(=O)O [5,8,11,14-eicosatetrainoic acid]",,"activity of known inhibitors of lipoxygenase, in words [1]: either simultaneously active as inhibitors of cyclooxygenase, or only active at very high concentrations"
10^-6 g/ml,Nc1ncn(Sc2ccccc2)n1 [Example 2],70,
10^-6 g/ml,Nc1ncn(Sc2ccc(Cl)cc2)n1 [Example 3],,
,Cc1ccc(Sn2cnc(N)n2)cc1 [Example 4],61,
,Clc1ccc(SNc2nnc(N3CCOCC3)s2)cc1 [Example 5],22,
,c1ccc(CNSc2nnnn2-c2ccccc2)cc1 [Example 10],26,
,c1ccc(-n2nnnc2SNc2nc[nH]n2)cc1 [Example 11],22,
,CC1(C)OC(C)(C)N(Sc2ccc(Cl)cc2)C1=O [Example 15],47,
,Cc1ccc(SN2C(=O)C(C)(C)OC2(C)C)cc1 [Example 16],40,
3e-06 g/mL,O=c1n(Sc2ccccc2)c(=O)n2c(=O)n(Sc3ccccc3)c(=O)n12 [Example 18],41,
,O=C1CCCN1Sc1ccc(Cl)c(C(F)(F)F)c1 [Example 20],64,
,O=C1CCCN1Sc1cc(C(F)(F)F)ccc1Cl [Example 21],44,
,COC(=O)c1ccc(SN2CCCC2=O)cc1 [Example 22],64,
10^-6 g/ml,O=C1c2ccccc2C(=O)N1Sc1ccccc1 [Example 29],48,
3e-06 g/mL,O=C1c2ccccc2C(=O)N1Sc1ccc(Cl)cc1 [Example 30],,
3e-06 g/mL,Cc1ccc(SN2C(=O)c3ccccc3C2=O)cc1 [Example 31],43,
3e-06 g/mL,CC(C)(C)c1ccc(SN2C(=O)c3ccccc3C2=O)cc1 [Example 35],,
,O=C1c2ccc([N+](=O)[O-])cc2C(=O)N1Sc1ccccc1 [Example 36],64,
,O=C1c2ccc([N+](=O)[O-])cc2C(=O)N1Sc1ccc(Cl)cc1 [Example 38],56,
10^-6 g/ml,O=C1c2ccc([N+](=O)[O-])cc2C(=O)N1Sc1ccccc1 [Example 39],,
3e-06 g/mL,O=C1c2ccc([N+](=O)[O-])cc2C(=O)N1Sc1ccc(Cl)cc1 [Example 40],,Inhibition of the migration of leucocytes (control = 0%) (leucocytes (migration)): 41%
3e-06 g/mL,O=C1c2c(Cl)c(Cl)c(Cl)c(Cl)c2C(=O)N1Sc1ccccc1 [Example 42],,
3e-06 g/mL,CC(C)(C)c1ccc(SN2C(=O)c3c(Cl)c(Cl)c(Cl)c(Cl)c3C2=O)cc1 [Example 43],,

Minimum effective inhibitory concentration (at least 50% inhibition) (platelet lipoxygenase),SMILES,inhibition in vivo at 10 mg (leucocytes (migration)) [%],also measured
,O=c1c2cc3c(=O)n(Sc4ccccc4)c(=O)c3cc2c(=O)n1Sc1ccccc1 [Example 45],40,
,O=C1c2cccc3cccc(c23)C(=O)N1Sc1ccccc1 [Example 47],21,
10^-6 g/ml,O=C1CCCN1Sc1ccccc1 [Example 52],76,
10^-6 g/ml,O=C1CCCN1Sc1ccc(Cl)cc1 [Example 53],,
10^-6 g/ml,CC(C)(C)c1ccc(SN2CCCC2=O)cc1 [Example 54],,
10^-6 g/ml,O=C1CCCCCN1Sc1ccccc1 [Example 55],78,
3e-06 g/mL,O=C1CCCCCN1Sc1ccc(Cl)cc1 [Example 56],86,
10^-5 g/ml,CC(C)(C)c1ccc(SN2CCCCCC2=O)cc1 [Example 57],,
,O=C1CCCCCCCCCCN1Sc1ccccc1 [Example 58],78,
3e-06 g/mL,O=C1c2ccccc2S(=O)(=O)N1Sc1ccccc1 [Example 60],,
10^-6 g/ml,O=C1c2ccccc2S(=O)(=O)N1Sc1ccc(Cl)cc1 [Example 61],,
3e-06 g/mL,CC(C)(C)c1ccc(SN2C(=O)c3ccccc3S2(=O)=O)cc1 [Example 62],,
3e-06 g/mL,O=C1C(=O)N(Sc2ccccc2)c2ccccc21 [Example 68],,
,O=C1C(=O)N(Sc2ccc(Cl)cc2)c2ccccc21 [Example 69],20,
10^-6 g/ml,O=C1CCN(c2ccccc2)N1Sc1ccc(Cl)cc1 [Example 72],,
10^-6 g/ml,CC1=NN(Sc2ccccc2)C(=O)C1 [Example 74],52,
3e-06 g/mL,Clc1ccc(Sn2cccn2)cc1 [Example 75],,
3e-06 g/mL,O=c1oc2ccccc2c(=O)n1SC1CCCCC1 [Example 76],,
1e-05 g/mL,"c1ccc2c(c1)ncn2SC1CCCCC1 [Example 80, 1-cyclohexylthiobenzimidazole]",,
1e-05 g/mL,CCC(C)Sn1cnc2ccccc21 (centres unmarked) [Example 84],,
,CC(Cc1ccc(O)c(O)c1)C(C)Cc1ccc(O)c(O)c1 (centres unmarked) [nordihydroguaiaretic acid],,"activity of known inhibitors of lipoxygenase, in words [1]: either simultaneously active as inhibitors of cyclooxygenase, or only active at very high concentrations"
,O=C1CCN(c2ccccc2)N1 [phenidone],,"activity of known inhibitors of lipoxygenase, in words [1]: either simultaneously active as inhibitors of cyclooxygenase, or only active at very high concentrations"

SMILES,Minimum effective inhibitory concentration (at least 50% inhibition) (platelet lipoxygenase),inhibition in vivo at 10 mg (leucocytes (migration)) [%],also measured
O=C1c2ccccc2C(=O)N1SC1CCCCC1 [Example 32],3e-06 g/mL,38,
